Test results taken from patent US12635686B2, “Compositions and methods for imposing seed quality” (priority 2014, dated 2026).

Experiments:
Type in all cases: in vivo
Inbred Seed Corn [1] = experiment: Warm germination test of harvested seed; conditions: for WARM GERM, sum: sum of the four size/shape categories
Description: (§1) Seed quality can be evaluated by germination tests, such as warm germination, cold germination, and saturated cold germination. These types of tests are commonly used to predict seed germination and emergence. Among these tests, the saturated cold germination test exposes the seeds to cold, wet, and oxygen deficient stress, and is thus considered probative of seed germination viability over a range of field conditions. […]
(§2) • Crop: Inbred Seed Corn • Variety: D2905VT3P • Plot Location: New Haven, WI • Season/Year: Summer/2014 • Corn Stage at Application: to Full Dent • Moisture at Application: 44% • Application Equipment: Case Patriot Sprayer • Application Conditions: Temperature: 88-90° F. • Sky: Clear • Wind: 2-3 mph • Application Diluent: Water • Application Volume: 20 gallons per acre • Number of full days between application and harvest: 10 days • Post Harvest Seed Treatment: CruiserMaxx® Corn 250 Test Plot Treatments: • Plot 1—Untreated Check • Plot Size: Balance of Field • Plot 2—Treatment A • Defol® 5: 4.8 quarts per acre • Sodium cyanate: 6.4 grams per acre • Water: 75.2 quarts per acre • Plot Size: 16 acres • Plot 3—Defol® 750 Treatment Check • Defol® 750: 3.2 quarts per acre • Water: 76.8 quarts per acre • Plot Size: 16 acres • Plot 4—Treatment B • Sodium cyanate: 6.4 grams per acre • Water: 80 quarts per acre • Plot Size: 16 acres
(§3) Samples of corn seed from each of the three test plots were evaluated for desirable/saleable seed size and shape, as well as germination under certain test conditions: warm germination, cold germination and saturated cold germination. Each of the four evaluated categories (i.e., 24/21 Round, 21/16 Round, 24/21 Flat, 21/16 Flat) constituted desirable and saleable seed size and shape. The results were as follows:
as §2, with “D3910VT2P” for “D2905VT3P”, “Springville,” for “New Haven,”, “Very early start of dent” for “to Full Dent”, “50-55%” for “44%”, “17” for “10”
as §3, with “25/20” for “24/21”, “20/16” for “21/16”, “shape.” for “shape. The results were as follows:”

Inbred Seed Corn [2] = experiment: Cold germination test of harvested seed; conditions: for COLD GERM, sum: sum of the four size/shape categories
Description: as §1, §2, §3
as §2, with “D3910VT2P” for “D2905VT3P”, “Springville,” for “New Haven,”, “Very early start of dent” for “to Full Dent”, “50-55%” for “44%”, “17” for “10”
as §3, with “25/20” for “24/21”, “20/16” for “21/16”, “shape.” for “shape. The results were as follows:”

Inbred Seed Corn [3] = experiment: Seed size and shape evaluation of seed from treated field plots (estimated units, bag weight, proportions); conditions: for % RDS: rounds as share of all units; for ABOVE 25: seed above size 25; for BELOW 17: seed below size 17; for EST. UNITS, total: sum of the four size/shape categories
Experimental: In an actively growing seed corn field scheduled to be treated with Drexel Defol® 750, four test plots were evaluated. Two plots were treated with Drexel Defol® 5, a sodium chlorate formulation containing 5 pounds of active sodium chlorate per gallon, and with varying amounts of cyanate anions. Sodium cyanate salt was used as the source of cyanate for its compatibility with sodium chlorate. The results of these two treatments were compared to an untreated check and a plot treated with Defol® 750, which contained 7.5 pounds of active sodium chlorate per gallon. The amount of active sodium chlorate applied in the three treated plots was equivalent.
• Crop: Inbred Seed Corn • Variety: A0036RMQKZ×HCL4011 • Plot Sizes: 5 acres for Plots 1-3; 7 acres for Plot 4 • Plot Location: Near Oxford, WI • Season/Year: Summer/2013 • Corn Stage: Full Dent • Application Equipment: Case Patriot Sprayer • Application Conditions: Temperature: 86° F. • Sky: Sunny • Wind: 4 mph • Application Diluent: Water • Application Volume: 20 gallons per acre • Number of full days between application and harvest: 24 days • Post Harvest Seed • Treatment: CruiserMaxx® Corn 250 Test Plot Treatments: • Plot 1—Untreated Check • Plot Size: 5 acres • Plot 2—Treatment A • Defol® 5: 4.8 quarts per acre • Sodium cyanate: 6.4 grams per acre • Water: 75.2 quarts per acre • Plot Size: 5 acres • Plot 3—Treatment B • Defol® 5: 4.8 quarts per acre • Sodium cyanate: 15.9 grams per acre • Water: 75.2 quarts per acre • Plot size: 5 acres • Plot 4—Defol® 750 Treatment Check • Defol® 750: 3.2 quarts per acre • Water: 76.8 quarts per acre • Plot size: 7 acres
Samples of corn seed from each of the four test plots were evaluated for seed size, shape, as well as germination under certain test conditions: warm germination, cold germination and saturated cold germination. Each of the four evaluated categories (i.e., 26/21 Round, 21/17 Round, 26/21 Flat, 21/17 Flat) constituted desirable and saleable seed size and shape. Evaluation was performed at Biodiagnostics, Inc., River Falls, WI. The results were as follows:
as §2, with “D2507VT3P” for “D2905VT3P”, “Jackson,” for “New Haven,”, “42%” for “44%”, “8” for “10”, “acres” for “acres • Plot 4—Treatment B • Sodium cyanate: 6.4 grams per acre • Water: 80 quarts per acre • Plot Size: 16 acres”
as §3, with “21/17” for “21/16”, “follows: […]” for “follows:”

Inbred Seed Corn [4] = experiment: Saturated cold (super cold) germination test of harvested seed; conditions: for SUPER COLD, sum: sum of the four size/shape categories
Description: Seed quality can be evaluated by germination tests, such as warm germination, cold germination, and saturated cold germination. These types of tests are commonly used to predict seed germination and emergence. Among these tests, the saturated cold germination test exposes the seeds to cold, wet, and oxygen deficient stress, and is thus considered probative of seed germination viability over a range of field conditions.
The term “seed vigor” refers to a measure of the quality of a seed assemblage based on certain properties, such as percent germination, which can predict seed germination and emergence under a wide range of field conditions, particularly stress conditions. The methodology of the present disclosure can be followed to produce a seed assemblage that is characterized by enhanced seed vigor, as determined by seed vigor testing. […] One such technique is known as the saturated cold germination test. According to the Seed Vigor Testing Handbook by the Association of Official Seed Analysts (2009), the saturated cold germination test is the most stressful of various cold-test procedures for determining the vigor of a seed assemblage. In this test, the soil or planting medium is maintained at 100% water holding capacity for the duration of the test, which also subjects seeds to sub-optimal temperatures and soil-borne pathogens. These conditions evaluate seeds based on their response to three stress factors: imbibitional chilling injury, attack by soil-borne pathogens, and limited oxygen availability. These harsh conditions can allow testers to discriminate between seed assemblages differing in vigor, and thus the saturated cold germination test can act as a good indicator of seed quality for many crops. […]
as §2
as §3, with “follows: […]” for “follows:”

[5] = Example 2 Hybrid 2 (D2905VT3P, 2014), seed size 21/16F
[6] = Example 2 Hybrid 2 (D2905VT3P, 2014), seed size 21/16R
[7] = Example 2 Hybrid 2 (D2905VT3P, 2014), seed size 24/21F
[8] = Example 2 Hybrid 2 (D2905VT3P, 2014), seed size 24/21R
[9] = Example 2 Hybrid 3 (D3910VT2P, 2014), seed size 20/16F
[10] = Example 2 Hybrid 3 (D3910VT2P, 2014), seed size 20/16R
[11] = Example 2 Hybrid 3 (D3910VT2P, 2014), seed size 25/20F
[12] = Example 2 Hybrid 3 (D3910VT2P, 2014), seed size 25/20R
[13] = Example 2 Hybrid 2, column headed GRAMS in the 8th table
[14] = Example 2 Hybrid 3, column headed GRAMS in the 12th table

N#CO [Cyanate, Sodium cyanate]
WARM GERM (Inbred Seed Corn [1]; [5]): 96% | WARM GERM (Inbred Seed Corn [1]; [6]): 96% | WARM GERM (Inbred Seed Corn [1]; [7]): 99% | WARM GERM (Inbred Seed Corn [1]; [8]): 98% | WARM GERM, sum (Inbred Seed Corn [1]; Example 2 Hybrid 2): 389% | WARM GERM (Inbred Seed Corn [1]; [9]): 98% | WARM GERM (Inbred Seed Corn [1]; [10]): 96% | WARM GERM (Inbred Seed Corn [1]; [11]): 99% | WARM GERM (Inbred Seed Corn [1]; [12]): 99% | WARM GERM, sum (Inbred Seed Corn [1]; Example 2 Hybrid 3): 392% | COLD GERM (Inbred Seed Corn [2]; [5]): 98% | COLD GERM (Inbred Seed Corn [2]; [6]): 96% | COLD GERM (Inbred Seed Corn [2]; [7]): 99% | COLD GERM (Inbred Seed Corn [2]; [8]): 96% | COLD GERM, sum (Inbred Seed Corn [2]; Example 2 Hybrid 2): 389% | COLD GERM (Inbred Seed Corn [2]; [9]): 95% | COLD GERM (Inbred Seed Corn [2]; [10]): 95% | COLD GERM (Inbred Seed Corn [2]; [11]): 96% | COLD GERM (Inbred Seed Corn [2]; [12]): 97% | COLD GERM, sum (Inbred Seed Corn [2]; Example 2 Hybrid 3): 383% | EST. BAG WT. (Inbred Seed Corn [3]; [5]): 40.5 lbs | EST. UNITS (Inbred Seed Corn [3]; [5]): 198 | EST. BAG WT. (Inbred Seed Corn [3]; [6]): 45.7 lbs | EST. UNITS (Inbred Seed Corn [3]; [6]): 392 | EST. BAG WT. (Inbred Seed Corn [3]; [7]): 51.6 lbs | EST. UNITS (Inbred Seed Corn [3]; [7]): 180 | EST. BAG WT. (Inbred Seed Corn [3]; [8]): 60.5 lbs | EST. UNITS (Inbred Seed Corn [3]; [8]): 253 | % SF OF ALL FL (Inbred Seed Corn [3]; Example 2 Hybrid 2, 21/16F units as share of 24/21F and 21/16F): 52.38% | % SR OF ALL RDS (Inbred Seed Corn [3]; Example 2 Hybrid 2, 21/16R units as share of 24/21R and 21/16R): 60.78% | % RDS (Inbred Seed Corn [3]; Example 2 Hybrid 2): 63.05% | ABOVE 25 (Inbred Seed Corn [3]; [13]): 5 | BELOW 17 (Inbred Seed Corn [3]; [13]): 21 | EST. UNITS, total (Inbred Seed Corn [3]; Example 2 Hybrid 2): 1023 | yields and proportions of seed at desirable and saleable sizes and shapes (Inbred Seed Corn [3]; Example 2 Hybrid 2 and Hybrid 3, compared to the Untreated Checks): higher yields and proportions | EST. BAG WT. (Inbred Seed Corn [3]; [9]): 40.1 lbs | EST. UNITS (Inbred Seed Corn [3]; [9]): 232 | EST. BAG WT. (Inbred Seed Corn [3]; [10]): 42.7 lbs | EST. UNITS (Inbred Seed Corn [3]; [10]): 218 | EST. BAG WT. (Inbred Seed Corn [3]; [11]): 50.6 lbs | EST. UNITS (Inbred Seed Corn [3]; [11]): 361 | EST. BAG WT. (Inbred Seed Corn [3]; [12]): 57 lbs | EST. UNITS (Inbred Seed Corn [3]; [12]): 234 | % SF OF ALL FL (Inbred Seed Corn [3]; Example 2 Hybrid 3, 20/16F units as share of 25/20F and 20/16F): 39.12% | % SR OF ALL RDS (Inbred Seed Corn [3]; Example 2 Hybrid 3, 20/16R units as share of 25/20R and 20/16R): 48.23% | % RDS (Inbred Seed Corn [3]; Example 2 Hybrid 3): 43.25% | ABOVE 25 (Inbred Seed Corn [3]; [14]): 4 | BELOW 17 (Inbred Seed Corn [3]; [14]): 23 | EST. UNITS, total (Inbred Seed Corn [3]; Example 2 Hybrid 3): 1045 | bag weight, in words (Inbred Seed Corn [3]; Examples 1 and 2, compared to the Untreated Check): more desirable bag weights | seed vigor based on the super cold germination percentage (Inbred Seed Corn [4]; Example 2, over the Untreated Checks, particularly Hybrid 3): increased seed vigor | SUPER COLD (Inbred Seed Corn [4]; [5]): 95% | SUPER COLD (Inbred Seed Corn [4]; [6]): 92% | SUPER COLD (Inbred Seed Corn [4]; [7]): 97% | SUPER COLD (Inbred Seed Corn [4]; [8]): 99% | SUPER COLD, sum (Inbred Seed Corn [4]; Example 2 Hybrid 2): 383% | SUPER COLD (Inbred Seed Corn [4]; [9]): 90% | SUPER COLD (Inbred Seed Corn [4]; [10]): 92% | SUPER COLD (Inbred Seed Corn [4]; [11]): 95% | SUPER COLD (Inbred Seed Corn [4]; [12]): 95% | SUPER COLD, sum (Inbred Seed Corn [4]; Example 2 Hybrid 3): 372%
